According to article PMC6812009, “Covalent Aurora A regulation by the metabolic integrator coenzyme A” (Redox Biology, 2019):

How the values were obtained:
Experiment in all cases: Kinase profiling screen (radioactive filter-binding assay)
Assay type in all cases: biochemical
BRSK2 = target: T1, BRSK2 (Homo sapiens, UniProt Q8IWQ3); details: 100 μM compound, 50 μM ATP; read-out: Kinase activity, % of activity in the absence of inhibitor
T1 sequence (Q8IWQ3 1-736): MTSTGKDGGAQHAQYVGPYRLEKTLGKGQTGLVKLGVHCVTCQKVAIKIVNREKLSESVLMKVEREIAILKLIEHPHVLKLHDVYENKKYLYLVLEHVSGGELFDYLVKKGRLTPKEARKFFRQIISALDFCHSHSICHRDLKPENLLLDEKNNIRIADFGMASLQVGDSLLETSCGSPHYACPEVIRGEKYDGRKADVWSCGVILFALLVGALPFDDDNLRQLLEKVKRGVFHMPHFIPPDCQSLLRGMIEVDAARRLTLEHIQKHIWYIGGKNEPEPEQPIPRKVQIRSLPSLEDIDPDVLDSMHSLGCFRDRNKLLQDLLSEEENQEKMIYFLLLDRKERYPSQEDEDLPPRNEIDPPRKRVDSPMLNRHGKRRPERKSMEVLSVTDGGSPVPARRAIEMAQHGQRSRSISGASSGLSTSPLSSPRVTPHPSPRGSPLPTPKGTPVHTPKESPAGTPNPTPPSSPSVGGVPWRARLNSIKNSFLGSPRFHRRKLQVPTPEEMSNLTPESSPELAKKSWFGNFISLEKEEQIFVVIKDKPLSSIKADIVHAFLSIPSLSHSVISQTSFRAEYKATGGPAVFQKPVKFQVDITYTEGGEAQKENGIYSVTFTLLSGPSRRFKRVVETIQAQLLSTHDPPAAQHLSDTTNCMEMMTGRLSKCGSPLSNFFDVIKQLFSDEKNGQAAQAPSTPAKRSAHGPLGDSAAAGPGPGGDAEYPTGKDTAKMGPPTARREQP
Method in brief: (§1)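 Single-point in vitro screen: 100 μM final of CoA, dpCoA and ADP, run in duplicate against recombinant kinase with a model substrate and optimal ATP.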

YES1 = YES1 (Homo sapiens, UniProt P07947); details: for activity at 100 µM: 100 μM compound, 20 μM ATP, read-out: Kinase activity, % of activity in the absence of inhibitor
Sequence of YES1 (P07947 whole entry): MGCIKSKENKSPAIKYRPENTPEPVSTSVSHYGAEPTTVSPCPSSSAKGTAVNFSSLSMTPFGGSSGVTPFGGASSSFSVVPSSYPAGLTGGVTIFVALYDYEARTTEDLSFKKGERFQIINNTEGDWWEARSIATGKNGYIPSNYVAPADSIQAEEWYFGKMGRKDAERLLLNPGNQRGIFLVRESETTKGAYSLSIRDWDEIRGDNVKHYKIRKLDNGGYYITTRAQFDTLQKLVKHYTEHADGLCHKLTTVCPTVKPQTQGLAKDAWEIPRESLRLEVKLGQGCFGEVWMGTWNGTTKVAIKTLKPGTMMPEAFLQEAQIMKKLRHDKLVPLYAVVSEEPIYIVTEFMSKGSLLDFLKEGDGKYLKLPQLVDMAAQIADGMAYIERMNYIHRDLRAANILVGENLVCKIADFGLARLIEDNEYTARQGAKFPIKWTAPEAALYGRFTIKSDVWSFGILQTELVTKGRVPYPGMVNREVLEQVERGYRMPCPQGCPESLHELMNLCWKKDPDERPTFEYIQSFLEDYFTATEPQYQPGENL
Method in brief: as §1

ASK1 = target: T2, ASK1 (Homo sapiens, UniProt Q99683); details: 100 μM compound, 50 μM ATP; read-out: Kinase activity, % of activity in the absence of inhibitor
T2 sequence (Q99683 1-1374): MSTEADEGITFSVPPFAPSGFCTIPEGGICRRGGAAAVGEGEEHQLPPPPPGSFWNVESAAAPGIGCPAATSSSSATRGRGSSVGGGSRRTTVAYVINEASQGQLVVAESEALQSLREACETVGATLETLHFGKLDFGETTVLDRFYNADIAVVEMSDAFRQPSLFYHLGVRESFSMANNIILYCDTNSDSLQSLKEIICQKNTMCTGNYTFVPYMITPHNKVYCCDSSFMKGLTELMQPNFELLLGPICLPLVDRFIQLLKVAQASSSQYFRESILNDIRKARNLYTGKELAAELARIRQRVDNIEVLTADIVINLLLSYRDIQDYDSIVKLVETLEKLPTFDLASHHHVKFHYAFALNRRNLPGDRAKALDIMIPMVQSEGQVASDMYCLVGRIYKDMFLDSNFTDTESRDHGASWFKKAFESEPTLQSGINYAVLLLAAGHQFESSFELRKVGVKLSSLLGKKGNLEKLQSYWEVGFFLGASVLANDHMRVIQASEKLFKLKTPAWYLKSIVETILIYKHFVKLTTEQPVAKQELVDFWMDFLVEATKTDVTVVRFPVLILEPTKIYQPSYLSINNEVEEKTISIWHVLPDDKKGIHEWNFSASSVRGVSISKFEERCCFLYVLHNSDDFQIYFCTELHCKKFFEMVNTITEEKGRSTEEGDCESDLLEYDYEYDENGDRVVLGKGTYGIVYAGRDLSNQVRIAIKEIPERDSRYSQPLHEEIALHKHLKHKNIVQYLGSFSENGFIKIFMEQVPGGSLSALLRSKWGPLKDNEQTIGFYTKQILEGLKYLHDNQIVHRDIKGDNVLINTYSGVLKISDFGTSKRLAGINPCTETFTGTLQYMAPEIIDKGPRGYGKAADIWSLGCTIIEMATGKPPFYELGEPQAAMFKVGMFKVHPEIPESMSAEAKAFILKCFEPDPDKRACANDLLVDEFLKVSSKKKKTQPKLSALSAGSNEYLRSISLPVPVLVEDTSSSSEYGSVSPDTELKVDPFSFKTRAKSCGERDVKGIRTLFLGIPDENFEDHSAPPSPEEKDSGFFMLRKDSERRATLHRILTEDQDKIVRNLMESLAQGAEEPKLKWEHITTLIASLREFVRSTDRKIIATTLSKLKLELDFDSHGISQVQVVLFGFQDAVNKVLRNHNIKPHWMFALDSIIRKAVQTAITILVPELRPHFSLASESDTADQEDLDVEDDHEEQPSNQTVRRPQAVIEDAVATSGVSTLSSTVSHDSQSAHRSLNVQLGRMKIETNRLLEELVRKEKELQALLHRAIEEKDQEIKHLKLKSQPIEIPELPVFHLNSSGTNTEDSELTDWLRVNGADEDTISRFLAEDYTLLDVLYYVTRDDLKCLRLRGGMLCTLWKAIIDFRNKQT
Method in brief: as §1

MNK2 = MNK2 (Homo sapiens, UniProt Q9HBH9); details: 100 μM compound, 50 μM ATP; read-out: Kinase activity, % of activity in the absence of inhibitor
Sequence of MNK2 (Q9HBH9 whole entry): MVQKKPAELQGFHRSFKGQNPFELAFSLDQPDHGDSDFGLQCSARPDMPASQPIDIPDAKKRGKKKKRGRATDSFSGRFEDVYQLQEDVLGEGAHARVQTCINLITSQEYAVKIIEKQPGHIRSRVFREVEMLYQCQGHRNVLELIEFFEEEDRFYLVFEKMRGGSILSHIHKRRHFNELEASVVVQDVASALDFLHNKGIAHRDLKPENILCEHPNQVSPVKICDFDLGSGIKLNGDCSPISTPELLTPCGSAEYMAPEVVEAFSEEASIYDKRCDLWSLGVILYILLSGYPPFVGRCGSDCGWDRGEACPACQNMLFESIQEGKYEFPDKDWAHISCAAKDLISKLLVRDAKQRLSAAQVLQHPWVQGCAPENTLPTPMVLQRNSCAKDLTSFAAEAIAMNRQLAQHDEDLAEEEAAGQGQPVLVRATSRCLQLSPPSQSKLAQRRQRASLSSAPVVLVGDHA
Method in brief: as §1

MKK6 = target: T3, MKK6 (Homo sapiens, UniProt P52564); details: 100 μM compound, 50 μM ATP; read-out: Kinase activity, % of activity in the absence of inhibitor
T3 sequence (P52564 1-334): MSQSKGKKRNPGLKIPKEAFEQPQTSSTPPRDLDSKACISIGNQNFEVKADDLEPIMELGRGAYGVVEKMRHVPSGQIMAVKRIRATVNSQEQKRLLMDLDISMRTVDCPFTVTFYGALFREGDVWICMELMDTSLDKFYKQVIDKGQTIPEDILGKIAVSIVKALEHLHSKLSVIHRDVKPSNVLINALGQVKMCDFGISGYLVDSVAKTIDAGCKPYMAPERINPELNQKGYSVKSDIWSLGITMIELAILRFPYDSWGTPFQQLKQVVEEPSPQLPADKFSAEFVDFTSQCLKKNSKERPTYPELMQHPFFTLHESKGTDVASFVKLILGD
Method in brief: as §1

ERK2 = ERK2 (Homo sapiens, UniProt P28482); details: 100 μM compound, 20 μM ATP; read-out: Kinase activity, % of activity in the absence of inhibitor
Sequence of ERK2 (P28482 whole entry): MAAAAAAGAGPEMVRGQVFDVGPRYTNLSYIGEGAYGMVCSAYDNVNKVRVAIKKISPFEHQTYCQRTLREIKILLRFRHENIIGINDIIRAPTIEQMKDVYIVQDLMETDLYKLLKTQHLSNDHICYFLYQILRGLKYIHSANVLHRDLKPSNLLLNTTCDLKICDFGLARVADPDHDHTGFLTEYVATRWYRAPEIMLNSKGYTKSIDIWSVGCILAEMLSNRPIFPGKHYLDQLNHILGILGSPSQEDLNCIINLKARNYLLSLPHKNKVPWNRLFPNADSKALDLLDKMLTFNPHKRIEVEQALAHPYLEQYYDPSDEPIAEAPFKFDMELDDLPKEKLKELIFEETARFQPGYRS
Method in brief: as §1

CC(C)(COP(=O)(O)OP(=O)(O)OC[C@H]1O[C@@H](n2cnc3c(N)ncnc32)[C@H](O)[C@@H]1OP(=O)(O)O)[C@@H](O)C(=O)NCCC(=O)NCCS [CoA, Coenzyme A]
activity at 100 µM (BRSK2): 115% | inhibition at 100 µM (YES1; 100 μM CoA, kinase profiling screen, read-out: YES inhibition): ≤ 50% | activity at 100 µM (YES1): 49% | YES inhibition (in words) (YES1; kinase profiling, 100 μM): modestly inhibited | activity at 100 µM (ASK1): 129% | activity at 100 µM (MNK2): 138% | activity at 100 µM (MKK6): 88.6% | activity at 100 µM (ERK2): 120%

CC(C)(COP(=O)(O)OP(=O)(O)OCC1OC(n2cnc3c(N)ncnc32)C(O)C1O)C(O)C(=O)NCCC(=O)NCCS (centres unmarked) [dpCoA, dephospho-CoA]
activity at 100 µM (BRSK2): 88.8% | activity at 100 µM (YES1): 11.5% | activity at 100 µM (ASK1): 88.6% | activity at 100 µM (MNK2): 87.1% | activity at 100 µM (MKK6): 88.2% | activity at 100 µM (ERK2): 81.7%

Nc1ncnc2c1ncn2C1OC(COP(=O)(O)OP(=O)(O)O)C(O)C1O (centres unmarked) [ADP]
activity at 100 µM (BRSK2): 52.4% | activity at 100 µM (YES1): 18.6% | activity at 100 µM (ASK1): 70.2% | activity at 100 µM (MNK2): 41.2% | activity at 100 µM (MKK6): 39.1% | activity at 100 µM (ERK2): 54.4%
